Each block holds one compound with its values, some of them ahead of it.
Key:
Plasmodium falciparum [1] = test: Antiplasmodial activity against Plasmodium falciparum K1; assay type: functional, organism-based
Plasmodium falciparum [2] = test: Antimalarial activity against Plasmodium falciparum Dd2 assessed as reduction in parasitic growth incubated for 48 hrs by SYBR green assay; assay type: functional, organism-based; details: Dd2, 48 h
[3] = Cytotoxicity against African green monkey Vero cells assessed as reduction in cell viability incubated for 24 hrs by fluorescence based analysis; assay type: toxicity; details: African green monkey (Chlorocebus sabaeus)
Plasmodium falciparum [4] = test: Antimalarial activity against chloroquine-resistant Plasmodium falciparum W2 assessed as growth inhibition incubated for 48 hrs by flow cytometry based analysis; assay type: functional, organism-based; details: W2, 48 h
Plasmodium falciparum [5] = test: Antiplasmodial activity against Plasmodium falciparum 3D7 assessed as reduction in parasite growth by Lactate dehydrogenase assay; assay type: functional, organism-based
Plasmodium falciparum [6] = test: Antiplasmodial activity against Plasmodium falciparum 3D7; assay type: functional, organism-based
[7] = Cytotoxicity against African green monkey Vero cells; assay type: toxicity, cell-based; details: chlorocebus sabaeus
Plasmodium falciparum [8] = test: Antiplasmodial activity against chloroquine-resistant Plasmodium falciparum W2 assessed as parasitic growth inhibition incubated for 72 hrs by SYBR Green staining based fluorescence analysis; assay type: functional, organism-based; details: W2, 72 h
Plasmodium falciparum [9] = test: Antimalarial activity against chloroquine-sensitive Plasmodium falciparum 3D7 assessed as reduction in parasite growth incubated for 36 hrs by Giemsa staining based microscopic analysis; assay type: functional, organism-based; details: 3D7, 36 h
[10] = Cytotoxicity against African monkey Vero cells assessed as reduction in cell viability incubated for 72 hrs by MTT assay; assay type: toxicity, cell-based; details: chlorocebus sabaeus
Plasmodium falciparum [11] = test: Antiplasmodial activity against chloroquine-sensitive Plasmodium falciparum 3D7 assessed as parasitic growth inhibition incubated for 72 hrs by SYBR Green staining based fluorescence analysis; assay type: functional, organism-based; details: 3D7, 72 h
Plasmodium falciparum [12] = test: Antimalarial activity against Plasmodium falciparum assessed as reduction in parasite growth incubated for 48 hrs by Giemsa staining based analysis; assay type: functional, organism-based
Plasmodium falciparum [13] = test: Antiplasmodial activity against Plasmodium falciparum Dd2 assessed as reduction in parasitic growth incubated for 48 hrs by SYBR Green staining based fluorescence analysis; assay type: functional, organism-based; details: Dd2, 48 h

IC50 (Plasmodium falciparum [1]): 0.6 µM
SMILES: O=C(NNc1ccnc2cc(Cl)ccc12)c1cc(-c2ccccc2)nc2ccccc12

SMILES: COc1ccc2nc(/C=C/c3ccc([N+](=O)[O-])cc3)cc(N3CCN(C)CC3)c2c1
IC50 (Plasmodium falciparum [2]): 0.452 µM

SMILES: O=C1c2cccc(N3CCOCC3)c2C(=O)N1CCCNc1ccnc2cc(Cl)ccc12
IC50 at 24 h [3]: 222 µM
IC50 (Plasmodium falciparum [4]): 0.276 µM

IC50 (Plasmodium falciparum [1]): 3.48 µM
SMILES: COc1ccc(NNc2ccnc3cc(Cl)ccc23)cc1

SMILES: COC(=O)/C=C/c1ccccc1Nc1ccnc2cc(Cl)ccc12
IC50 (Plasmodium falciparum [5]): 2.32 µM

SMILES: COc1ccc2nc(/C=C/c3ccc([N+](=O)[O-])cc3)cc(NC3CCCCC3)c2c1
IC50 (Plasmodium falciparum [2]): 0.171 µM

IC50 (Plasmodium falciparum [1]): 0.09 µM
SMILES: Cc1cc(C(=O)NNc2ccnc3cc(Cl)ccc23)c2ccccc2n1

IC50 (Plasmodium falciparum [6]): 2.4 µM
SMILES: COc1ccc(C(CCN(Cc2ccccc2)Cc2ccccc2)NCC(C)Nc2ccnc3cc(Cl)ccc23)cc1 (stereo not drawn)

SMILES: N=C(N=C(N)N)SCCCCNc1ccnc2cc(Cl)ccc12
CC50 [7]: > 11 µM

IC50 (Plasmodium falciparum [6]): 3.84 µM
SMILES: CCN(CC)CCC(NCC(C)Nc1ccnc2cc(Cl)ccc12)c1ccccc1 (stereo not drawn)

SMILES: C=C[C@H]1CN2CC[C@H]1C[C@H]2[C@H](O)c1ccnc2ccc(OC)cc12 [QUININE]
IC50 (Plasmodium falciparum [8]): 0.504 µM
IC50 (Plasmodium falciparum [1]): 0.83 µM

SMILES: CC(C)(C)NC(=O)/C=C/c1cccc(Nc2ccnc3cc(Cl)ccc23)c1
IC50 (Plasmodium falciparum [5]): 14.8 µM

SMILES: O=C(Cn1cc(COc2ccc(Cl)cc2)nn1)NCCCNc1ccnc2cc(Cl)ccc12
IC50 (Plasmodium falciparum [9]): 90 µM
CC50 at 72 h [10]: 27.1 µM

SMILES: CC1(C)OB(c2ccc(OCc3cn(CCNc4ccnc5cc(Cl)ccc45)nn3)cc2C=O)OC1(C)C
IC50 (Plasmodium falciparum [8]): 6.23 µM
IC50 (Plasmodium falciparum [11]): 7.37 µM

SMILES: COC(=O)/C=C/c1ccccc1Nc1ccnc2cc(OC)ccc12
IC50 (Plasmodium falciparum [5]): 15.3 µM

SMILES: CC1=NC(=S)N(Nc2ccnc3cc(Cl)ccc23)C(=O)C1
IC50 (Plasmodium falciparum [12]): 11.9 µM

SMILES: O=C(Cn1cc(COc2ccc(Cl)cc2)nn1)NCCNc1ccnc2cc(Cl)ccc12
IC50 (Plasmodium falciparum [9]): 0.04 µM
CC50 at 72 h [10]: 28.9 µM

SMILES: COc1ccc2nc(/C=C/c3ccc([N+](=O)[O-])cc3)cc(N3CCN(CCO)CC3)c2c1
IC50 (Plasmodium falciparum [2]): 0.672 µM

SMILES: Nc1ccccc1Nc1ccnc2cc(Cl)ccc12
IC50 (Plasmodium falciparum [12]): 35.3 µM

SMILES: O=Cc1cc(OCc2cn(CCCNc3ccnc4cc(Cl)ccc34)nn2)ccc1Br
IC50 (Plasmodium falciparum [8]): 7.09 µM
IC50 (Plasmodium falciparum [11]): 6.29 µM

SMILES: Cc1ccc(OCc2cn(CC(=O)NCCCNc3ccnc4cc(Cl)ccc34)nn2)cc1
IC50 (Plasmodium falciparum [9]): 91.9 µM
CC50 at 72 h [10]: > 208 µM

IC50 (Plasmodium falciparum [6]): 8.25 µM
SMILES: COc1ccc(C(CCN(C)C)NCC(C)Nc2ccnc3cc(Cl)ccc23)cc1 (stereo not drawn)

SMILES: O=C(Cn1cc(-c2ccccc2)nn1)NCCCNc1ccnc2cc(Cl)ccc12
IC50 (Plasmodium falciparum [9]): 0.137 µM
CC50 at 72 h [10]: 41.5 µM

SMILES: C/C(=N\C(=S)NNc1ccnc2cc(Cl)ccc12)c1ccc2ccccc2c1
IC50 (Plasmodium falciparum [12]): 79.9 µM

SMILES: O=C1c2cccc(N3CCOCC3)c2C(=O)N1CCNc1ccnc2cc(Cl)ccc12
IC50 at 24 h [3]: 28.6 µM
IC50 (Plasmodium falciparum [4]): 0.18 µM

SMILES: O=Cc1cc(OCc2cn(CCN3CCN(c4ccnc5cc(Cl)ccc45)CC3)nn2)ccc1Br
IC50 (Plasmodium falciparum [8]): 8.26 µM
IC50 (Plasmodium falciparum [11]): 8.34 µM

IC50 (Plasmodium falciparum [1]): 4.87 µM
SMILES: COc1ccc(Nc2ccnc3cc(Cl)ccc23)cc1

IC50 (Plasmodium falciparum [1]): 5.51 µM
SMILES: O=[N+]([O-])c1ccc(Nc2ccnc3cc(Cl)ccc23)cc1

SMILES: N=C(N=C(N)N)SCCCCNc1ccnc2cc(C(F)(F)F)ccc12
CC50 [7]: > 10.2 µM

SMILES: COc1ccc2nc(/C=C/c3ccc(Br)cc3)cc(NCCN(C)C)c2c1
IC50 (Plasmodium falciparum [2]): 0.04 µM

SMILES: O=C1c2ccc(N3CCCCC3)cc2C(=O)N1CCCNc1ccnc2cc(Cl)ccc12
IC50 at 24 h [3]: 55.8 µM
IC50 (Plasmodium falciparum [4]): 0.176 µM

SMILES: O=C1c2cccc(N3CCCCC3)c2C(=O)N1CCCNc1ccnc2cc(Cl)ccc12
IC50 at 24 h [3]: 55.8 µM
IC50 (Plasmodium falciparum [4]): 0.162 µM

SMILES: N=C(N=C(N)N)SCCNc1ccnc2cc(C(F)(F)F)ccc12
CC50 [7]: > 10.9 µM

SMILES: O=C(Cn1cc(COc2ccc(Br)cc2)nn1)NCCCNc1ccnc2cc(Cl)ccc12
IC50 (Plasmodium falciparum [9]): 38.8 µM
CC50 at 72 h [10]: 75.5 µM

IC50 (Plasmodium falciparum [6]): 2.41 µM
SMILES: CCN(CC)CCC(NCC(C)Nc1ccnc2cc(Cl)ccc12)c1ccc(OC)cc1 (stereo not drawn)

SMILES: O=Cc1ccc(OCc2cn(CC(=O)NCCCNc3ccnc4cc(Cl)ccc34)nn2)cc1
IC50 (Plasmodium falciparum [9]): 0.91 µM
CC50 at 72 h [10]: 12.2 µM

SMILES: C[C@H]1[C@@H](O)O[C@@H]2O[C@@]3(C)CC[C@H]4[C@H](C)CC[C@@H]1[C@@]24OO3 [ARTENIMOL]
IC50 (Plasmodium falciparum [8]): 0.001 µM
IC50 (Plasmodium falciparum [9]): 0.002 µM

SMILES: O=C1c2ccc(N3CCCCC3)cc2C(=O)N1CCNc1ccnc2cc(Cl)ccc12
IC50 at 24 h [3]: 28.8 µM
IC50 (Plasmodium falciparum [4]): 0.163 µM

SMILES: COc1ccc2nc(/C=C/c3cccs3)cc(NCCN(C)C)c2c1
IC50 (Plasmodium falciparum [2]): 0.096 µM

IC50 (Plasmodium falciparum [6]): 2.69 µM
SMILES: CC(CNC(CCN(Cc1ccccc1)Cc1ccccc1)c1ccccc1)Nc1ccnc2cc(Cl)ccc12 (stereo not drawn)

IC50 (Plasmodium falciparum [6]): 5.27 µM
SMILES: CCN(CC)CCC(NCC(C)Nc1ccnc2cc(Cl)ccc12)c1ccc(C)cc1 (stereo not drawn)

SMILES: COc1ccc2nc(/C=C/c3ccc([N+](=O)[O-])cc3)cc(Nc3ccccc3)c2c1
IC50 (Plasmodium falciparum [2]): 0.509 µM

SMILES: O=C1c2ccc(N3CCCCC3)cc2C(=O)N1CCCCCCNc1ccnc2cc(Cl)ccc12
IC50 at 24 h [3]: 25.5 µM
IC50 (Plasmodium falciparum [4]): 0.012 µM

SMILES: COc1ccc2nc(/C=C/c3ccncc3)cc(Nc3ccccc3)c2c1
IC50 (Plasmodium falciparum [13]): 0.965 µM

SMILES: O=C(Cn1cc(COc2ccc(Cl)cc2)nn1)NCCCCNc1ccnc2cc(Cl)ccc12
IC50 (Plasmodium falciparum [9]): 92.8 µM
CC50 at 72 h [10]: 10.9 µM
